In patent US10688200B2, “Urea-based prostate specific membrane antigen (PSMA) inhibitors for imaging and therapy” (Five Eleven Pharma Inc., priority 2015, dated 2020):

What was measured:
[1] = test system: PSMA; experiment: In vitro autoradiography of LNCaP tumor and mouse kidney sections; assay type: binding; conditions: incubation with 2-PMPA
Protocol: LNCaP tumor and mouse kidneys were cut at 20 μm on a cryostat, thaw-mounted onto slides. Slides are incubated with radiotracers (3 μCi/ml) in PBS for 30 min and washed with PBS twice for 3 min each. After drying, the slides put into a plate for exposure for 30 min. Images were acquired with Typhoon FLA 7000 (GE Healthcare).
To validate the PSMA binding, in vitro autoradiography studies using LNCaP tumor and mouse kidney sections were carried out.
FIGS. 2A-2K show in vitro autoradiography of LNCaP tumor (left side) and mouse kidney sections (right side). […] These new PSMA target compounds, display high uptake in the sections. [^68Ga]1a (PSMA-11) was used as a control.

[2] = molecular target: T1, PSMA (Homo sapiens, UniProt Q04609); experiment: In vitro binding signals of 68Ga labeled ligands in LNCaP tumor homogenates; conditions: Ga-68 radiolabeled ligands; for Nonspecific binding (NSB): with 1a (PSMA11) 10 μM
T1 construct: 100 μL of freshly harvested PSMA cells; endogenous in cells; host or cells: 'PSMA cells' in the method

[3] = test system: PSMA expressing LNCaP cells; experiment: Cell uptake comparisons in LNCaP cells (FIG. 1); assay type: cell-based, human; conditions: 1 hr at 37° C.
Protocol: Cell uptake studies were performed using PSMA expressing LNCaP cells. Cells were grown in 6 well plates for 2 days. After incubation with ^68Ga-labeled ligands for 1 hr at 37° C., media were removed. After washing twice with 3 mL PBS buffer, cells were lysed with 0.1 N NaOH. Lysed cells were wiped with filter paper and radioactivity in filter paper was measured with a gamma counter.
The LNCaP cells over express PSMA receptor binding sites, the level of binding, % uptake/well, was an indicator of PSMA binding, the higher the better. [^68Ga]1a, a known PSMA imaging agent (PSMA-11), was used as a control.

[4] = Biodistribution of radiotracers in normal mice; assay type: in vivo, mouse; conditions: normal male mice
How it was run: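 Male CD-1 mice received 35 μCi [^68Ga] radiotracer (0.2 nmole ligand) by tail vein. Four mice per time point sacrificed at 2, 30, 60 and 120 min p.i.; organs and blood weighed and gamma counted. %ID/g calculated against a standard dilution of the dose, decay-corrected.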

T1 sequence (Q04609 whole entry): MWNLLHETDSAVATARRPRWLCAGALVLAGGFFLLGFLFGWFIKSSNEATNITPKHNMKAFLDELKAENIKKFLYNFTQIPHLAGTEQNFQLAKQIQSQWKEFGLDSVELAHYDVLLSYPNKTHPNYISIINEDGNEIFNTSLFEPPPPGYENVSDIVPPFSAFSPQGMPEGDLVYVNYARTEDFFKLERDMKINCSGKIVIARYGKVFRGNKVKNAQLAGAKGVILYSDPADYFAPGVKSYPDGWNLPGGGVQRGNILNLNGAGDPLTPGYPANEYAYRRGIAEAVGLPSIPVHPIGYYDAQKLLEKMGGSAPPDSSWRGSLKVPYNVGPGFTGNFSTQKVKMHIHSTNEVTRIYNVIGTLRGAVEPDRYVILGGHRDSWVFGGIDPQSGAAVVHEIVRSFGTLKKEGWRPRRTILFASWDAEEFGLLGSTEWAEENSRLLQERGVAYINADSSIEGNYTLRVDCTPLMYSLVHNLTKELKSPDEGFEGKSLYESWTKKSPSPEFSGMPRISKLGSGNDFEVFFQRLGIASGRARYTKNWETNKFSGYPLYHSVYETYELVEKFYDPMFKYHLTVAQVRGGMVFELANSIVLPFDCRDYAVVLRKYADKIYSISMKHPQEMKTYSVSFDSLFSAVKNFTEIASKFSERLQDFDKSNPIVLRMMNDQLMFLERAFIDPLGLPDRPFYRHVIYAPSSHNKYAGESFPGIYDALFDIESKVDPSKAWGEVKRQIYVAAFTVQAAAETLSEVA

2-(3-mercaptopropyl)pentane-dioic acid [Compound 2-PMPA]
Blocking of radiotracer binding in autoradiography, in words [1]: blocked radiotracers' binding to tumor and kidney

O=C(O)CCc1ccc2c(n1)C[N+]13CC[N+]45CC(=O)[O][68Ga-3]14([O]C(=O)C3)([O]2)[O]c1ccc(CCC(=O)NCCCCCC(=O)NCCCC[C@H](NC(=O)N[C@@H](CCC(=O)O)C(=O)O)C(=O)O)nc1C5 (some centres unmarked) [[^68Ga]2]
Specific binding (SB) SB = TB − NSB [2]: lower specific binding
Nonspecific binding (NSB) [2]: high nonspecific binding
Cell uptake (% uptake/well), in words [3]: low cell uptakes
Biodistribution: Blood ([4]; 2 min): 8.92 ± 0.75 % dose/g
Biodistribution: Bone ([4]; 2 min): 2.18 ± 0.08 % dose/g
Biodistribution: Brain ([4]; 2 min): 0.24 ± 0.02 % dose/g
Biodistribution: Heart ([4]; 2 min): 3.40 ± 0.45 % dose/g
Biodistribution: Kidney ([4]; 2 min): 56.4 ± 8.05 % dose/g
Biodistribution: Liver ([4]; 2 min): 2.01 ± 0.08 % dose/g
Biodistribution: Lung ([4]; 2 min): 5.18 ± 0.52 % dose/g
Biodistribution: Muscle ([4]; 2 min): 2.00 ± 0.25 % dose/g
Biodistribution: Pancreas ([4]; 2 min): 1.85 ± 0.17 % dose/g
Biodistribution: Skin ([4]; 2 min): 3.07 ± 0.05 % dose/g
Biodistribution: Spleen ([4]; 2 min): 3.57 ± 0.20 % dose/g
Biodistribution: Blood ([4]; 30 min): 1.18 ± 0.15 % dose/g
Biodistribution: Bone ([4]; 30 min): 0.48 ± 0.02 % dose/g
Biodistribution: Brain ([4]; 30 min): 0.05 ± 0.00 % dose/g
Biodistribution: Heart ([4]; 30 min): 0.51 ± 0.03 % dose/g
Biodistribution: Kidney ([4]; 30 min): 108 ± 8.66 % dose/g
Biodistribution: Liver ([4]; 30 min): 0.33 ± 0.01 % dose/g
Biodistribution: Lung ([4]; 30 min): 1.07 ± 0.12 % dose/g
Biodistribution: Muscle ([4]; 30 min): 0.46 ± 0.03 % dose/g
Biodistribution: Pancreas ([4]; 30 min): 0.76 ± 0.12 % dose/g
Biodistribution: Skin ([4]; 30 min): 0.88 ± 0.08 % dose/g
Biodistribution: Spleen ([4]; 30 min): 1.33 ± 0.08 % dose/g
Biodistribution: Blood ([4]; 60 min): 0.89 ± 0.10 % dose/g
Biodistribution: Bone ([4]; 60 min): 0.43 ± 0.01 % dose/g
Biodistribution: Brain ([4]; 60 min): 0.03 ± 0.00 % dose/g
Biodistribution: Heart ([4]; 60 min): 0.33 ± 0.02 % dose/g
Biodistribution: Kidney ([4]; 60 min): 67.8 ± 15.57 % dose/g
Biodistribution: Liver ([4]; 60 min): 0.25 ± 0.06 % dose/g
Biodistribution: Lung ([4]; 60 min): 0.72 ± 0.16 % dose/g
Biodistribution: Muscle ([4]; 60 min): 0.24 ± 0.01 % dose/g
Biodistribution: Pancreas ([4]; 60 min): 0.44 ± 0.08 % dose/g
Biodistribution: Skin ([4]; 60 min): 0.46 ± 0.10 % dose/g
Biodistribution: Spleen ([4]; 60 min): 0.84 ± 0.24 % dose/g
Biodistribution: Blood ([4]; 120 min): 0.78 ± 0.04 % dose/g
Biodistribution: Bone ([4]; 120 min): 0.60 ± 0.03 % dose/g
Biodistribution: Brain ([4]; 120 min): 0.03 ± 0.01 % dose/g
Biodistribution: Heart ([4]; 120 min): 0.28 ± 0.02 % dose/g
Biodistribution: Kidney ([4]; 120 min): 26.9 ± 6.13 % dose/g
Biodistribution: Liver ([4]; 120 min): 0.22 ± 0.01 % dose/g
Biodistribution: Lung ([4]; 120 min): 0.45 ± 0.01 % dose/g
Biodistribution: Muscle ([4]; 120 min): 0.18 ± 0.01 % dose/g
Biodistribution: Pancreas ([4]; 120 min): 0.30 ± 0.04 % dose/g
Biodistribution: Skin ([4]; 120 min): 0.29 ± 0.03 % dose/g
Biodistribution: Spleen ([4]; 120 min): 0.36 ± 0.04 % dose/g

O=C(O)CC[C@H](NC(=O)N[C@@H](CCCCNC(=O)CCCCCNC(=O)CCc1ccc2c(n1)C[N+]13CC[N+]45CC(=O)[O][68Ga-3]14([O]C(=O)C3)([O]2)[O]c1ccc(CCC(=O)NCCCCCC(=O)NCCCC[C@H](NC(=O)N[C@@H](CCC(=O)O)C(=O)O)C(=O)O)nc1C5)C(=O)O)C(=O)O (some centres unmarked) [[^68Ga]3]
Specific binding (SB) SB = TB − NSB [2]: lower specific binding
Nonspecific binding (NSB) [2]: high nonspecific binding
Cell uptake (% uptake/well), in words [3]: low cell uptakes
Biodistribution: Blood ([4]; 2 min): 8.94 ± 1.57 % dose/g
Biodistribution: Bone ([4]; 2 min): 3.53 ± 0.96 % dose/g
Biodistribution: Brain ([4]; 2 min): 0.33 ± 0.06 % dose/g
Biodistribution: Heart ([4]; 2 min): 4.34 ± 1.15 % dose/g
Biodistribution: Kidney ([4]; 2 min): 56.2 ± 6.53 % dose/g
Biodistribution: Liver ([4]; 2 min): 3.42 ± 0.11 % dose/g
Biodistribution: Lung ([4]; 2 min): 7.49 ± 2.71 % dose/g
Biodistribution: Muscle ([4]; 2 min): 2.02 ± 0.74 % dose/g
Biodistribution: Pancreas ([4]; 2 min): 2.89 ± 0.61 % dose/g
Biodistribution: Skin ([4]; 2 min): 2.63 ± 0.48 % dose/g
Biodistribution: Spleen ([4]; 2 min): 5.14 ± 1.49 % dose/g
Biodistribution: Blood ([4]; 30 min): 3.19 ± 0.72 % dose/g
Biodistribution: Bone ([4]; 30 min): 1.70 ± 0.20 % dose/g
Biodistribution: Brain ([4]; 30 min): 0.09 ± 0.01 % dose/g
Biodistribution: Heart ([4]; 30 min): 0.93 ± 0.22 % dose/g
Biodistribution: Kidney ([4]; 30 min): 94.4 ± 13.7 % dose/g
Biodistribution: Liver ([4]; 30 min): 1.71 ± 0.05 % dose/g
Biodistribution: Lung ([4]; 30 min): 1.38 ± 0.17 % dose/g
Biodistribution: Muscle ([4]; 30 min): 1.53 ± 0.68 % dose/g
Biodistribution: Pancreas ([4]; 30 min): 1.36 ± 0.32 % dose/g
Biodistribution: Skin ([4]; 30 min): 1.48 ± 0.34 % dose/g
Biodistribution: Spleen ([4]; 30 min): 4.35 ± 0.37 % dose/g
Biodistribution: Blood ([4]; 60 min): 1.52 ± 0.44 % dose/g
Biodistribution: Bone ([4]; 60 min): 2.34 ± 1.08 % dose/g
Biodistribution: Brain ([4]; 60 min): 0.06 ± 0.04 % dose/g
Biodistribution: Heart ([4]; 60 min): 0.82 ± 0.22 % dose/g
Biodistribution: Kidney ([4]; 60 min): 61.3 ± 5.97 % dose/g
Biodistribution: Liver ([4]; 60 min): 1.81 ± 0.14 % dose/g
Biodistribution: Lung ([4]; 60 min): 1.29 ± 0.31 % dose/g
Biodistribution: Muscle ([4]; 60 min): 1.01 ± 0.29 % dose/g
Biodistribution: Pancreas ([4]; 60 min): 1.34 ± 0.45 % dose/g
Biodistribution: Skin ([4]; 60 min): 2.35 ± 0.34 % dose/g
Biodistribution: Spleen ([4]; 60 min): 1.75 ± 0.17 % dose/g
Biodistribution: Blood ([4]; 120 min): 1.00 ± 0.30 % dose/g
Biodistribution: Bone ([4]; 120 min): 3.56 ± 1.08 % dose/g
Biodistribution: Brain ([4]; 120 min): 0.05 ± 0.02 % dose/g
Biodistribution: Heart ([4]; 120 min): 0.84 ± 0.20 % dose/g
Biodistribution: Kidney ([4]; 120 min): 30.3 ± 8.87 % dose/g
Biodistribution: Liver ([4]; 120 min): 2.00 ± 0.20 % dose/g
Biodistribution: Lung ([4]; 120 min): 0.97 ± 0.12 % dose/g
Biodistribution: Muscle ([4]; 120 min): 1.13 ± 0.50 % dose/g
Biodistribution: Pancreas ([4]; 120 min): 1.21 ± 0.19 % dose/g
Biodistribution: Skin ([4]; 120 min): 1.22 ± 0.20 % dose/g
Biodistribution: Spleen ([4]; 120 min): 1.71 ± 0.56 % dose/g
